# What was measured:
# Assay type in all cases: cell-based
# [1] = system: Streptococcus pneumoniae ATCC49619; assay: In vitro antibacterial activity, microbroth dilution method (CLSI method), test bacterium B; conditions: read-out: MIC (minimum inhibitory concentration), test bacterium B
# Description: (§1) In vitro antibacterial activities of the compounds of the present invention against various test bacteria were measured according to the microbroth dilution method (CLSI method). Among them, the bacteria C, D and E are erythromycin resistant bacteria. The MIC values (minimum inhibitory concentration, μg/ml) for the test bacteria A and B are exemplified in Table 22.
# [2] = system: Haemophilus infuenzae ATCC43095; assay: In vitro antibacterial activity, microbroth dilution method (CLSI method), test bacterium A; conditions: read-out: MIC (minimum inhibitory concentration), test bacterium A
# Description: as §1
# [3] = system: Streptococcus pyogenes M808; assay: In vitro antibacterial activity, microbroth dilution method (CLSI method), test bacterium D (erythromycin resistant); conditions: read-out: MIC (minimum inhibitory concentration), test bacterium D
# Description: as §1
# [4] = system: Streptococcus pneumoniae ATCC700904; assay: In vitro antibacterial activity, microbroth dilution method (CLSI method), test bacterium C (erythromycin resistant); conditions: read-out: MIC (minimum inhibitory concentration), test bacterium C
# Description: as §1
SMILES,MIC [1],MIC [2],MIC [3],MIC [4]
CC[C@H]1OC(=O)[C@H](C)[C@@H](O[C@H]2C[C@@](C)(OC)[C@@](O)(CN(C)CCN(C)C)[C@H](C)O2)[C@H](C)[C@@H](O[C@@H]2O[C@H](C)C[C@H](N(C)C)[C@H]2O)[C@@](C)(OC)C[C@@H](C)C(=O)[C@H](C)[C@H]2N(C)C(=O)O[C@]12C [Example183],0.016 µg/mL,8 µg/mL,–,–
CC[C@H]1OC(=O)[C@H](C)[C@@H](O[C@H]2C[C@@](C)(OC)[C@@](O)(CN(C)CCN(CC)C(=O)OC)[C@H](C)O2)[C@H](C)[C@@H](O[C@@H]2O[C@H](C)C[C@H](N(C)C)[C@H]2O)[C@@](C)(OC)C[C@@H](C)C(=O)[C@H](C)[C@H]2NC(=O)O[C@@]21C [Example 264],–,–,≥ 16 µg/mL,0.12 to 0.25 µg/mL
CC[C@H]1OC(=O)[C@H](C)[C@@H](O[C@H]2C[C@@](C)(OC)[C@@](O)(CN(C)CCN(C)C)[C@H](C)O2)[C@H](C)[C@@H](O[C@@H]2O[C@H](C)C[C@H](N(C)C)[C@H]2O)[C@@](C)(OC(=O)NC/C=C/c2ccc3ncccc3c2)C[C@@H](C)C(=O)[C@H](C)[C@H]2NC(=O)O[C@@]21C [Example 348],–,–,4 to 8 µg/mL,0.12 to 0.25 µg/mL
CC[C@H]1OC(=O)[C@H](C)[C@@H](O[C@H]2C[C@@](C)(OC)[C@@](O)(CN(C)CCN(C)C)[C@H](C)O2)[C@H](C)[C@@H](O[C@@H]2O[C@H](C)C[C@H](N(C)C)[C@H]2O)[C@@](C)(OC(=O)NC/C=C/c2ccc3ncccc3c2)C[C@@H](C)C(=O)[C@H](C)[C@H]2NC(=O)O[C@@]21C [Example348],0.03 µg/mL,16 µg/mL,–,–
CC[C@H]1OC(=O)[C@H](C)[C@@H](O[C@H]2C[C@@](C)(OC)[C@@](O)(CN(C)CCN(CC)C(C)=O)[C@H](C)O2)[C@H](C)[C@@H](O[C@@H]2O[C@H](C)C[C@H](N(C)C)[C@H]2O)[C@@](C)(OC)C[C@@H](C)C(=O)[C@H](C)[C@H]2NC(=O)O[C@@]21C [Example 263],–,–,≥ 16 µg/mL,0.5 to 2 µg/mL
CC[C@H]1OC(=O)[C@H](C)[C@@H](O[C@H]2C[C@@](C)(OC)[C@@](O)(CN(C)CCN(C(C)C)C(C)C)[C@H](C)O2)[C@H](C)[C@@H](O[C@@H]2O[C@H](C)C[C@H](N(C)C)[C@H]2O)[C@@](C)(OC)C[C@@H](C)C(=O)[C@H](C)[C@H]2N(CCOS(N)(=O)=O)C(=O)O[C@]12C [Example 456],–,–,≤ 2 µg/mL,0.12 to 0.25 µg/mL
CC[C@H]1OC(=O)[C@H](C)[C@@H](O[C@H]2C[C@@](C)(OC)[C@@](O)(CN(C)C(=O)CN(CC)CC)[C@H](C)O2)[C@H](C)[C@@H](O[C@@H]2O[C@H](C)C[C@H](N(C)C)[C@H]2O)[C@@](C)(OC)C[C@@H](C)C(=O)[C@H](C)[C@H]2NC(=O)O[C@@]21C [Example 329],–,–,≥ 16 µg/mL,0.5 to 2 µg/mL
CC[C@H]1OC(=O)[C@H](C)[C@@H](O[C@H]2C[C@@](C)(OC)[C@@](O)(CN(CC)CCN(CC)CC)[C@H](C)O2)[C@H](C)[C@@H](O[C@@H]2O[C@H](C)C[C@H](N(C)C)[C@H]2O)[C@@](C)(OC)C[C@@H](C)C(=O)[C@H](C)[C@H]2N(CCNS(C)(=O)=O)C(=O)O[C@]12C [Example 413],–,–,4 to 8 µg/mL,0.12 to 0.25 µg/mL
CC[C@H]1OC(=O)[C@H](C)[C@@H](O[C@H]2C[C@@](C)(OC)[C@@](O)(CN(CCOC)CCN(CC)CC)[C@H](C)O2)[C@H](C)[C@@H](O[C@@H]2O[C@H](C)C[C@H](N(C)C)[C@H]2O)[C@@](C)(OC)C[C@@H](C)C(=O)[C@H](C)[C@H]2N(CCNS(C)(=O)=O)C(=O)O[C@]12C [Example 443],–,–,4 to 8 µg/mL,0.12 to 0.25 µg/mL
CC[C@H]1OC(=O)[C@H](C)[C@@H](O[C@H]2C[C@@](C)(OC)[C@@](O)(CN(C)CCN(CC)CC)[C@H](C)O2)[C@H](C)[C@@H](O[C@@H]2O[C@H](C)C[C@H](N(C)C)[C@H]2O)[C@@](C)(OC)C[C@@H](C)C(=O)[C@H](C)[C@H]2N(O)C(=O)O[C@]12C [Example 170],–,–,4 to 8 µg/mL,0.12 to 0.25 µg/mL
CC[C@H]1OC(=O)[C@H](C)[C@@H](O[C@H]2C[C@@](C)(OC)[C@@](O)(CN(C)CCN3C4CCC3CC4)[C@H](C)O2)[C@H](C)[C@@H](O[C@@H]2O[C@H](C)C[C@H](N(C)C)[C@H]2O)[C@@](C)(OC)C[C@@H](C)C(=O)[C@H](C)[C@H]2N(CCNS(C)(=O)=O)C(=O)O[C@]12C [Example 446],–,–,4 to 8 µg/mL,0.12 to 0.25 µg/mL
CC[C@H]1OC(=O)[C@H](C)[C@@H](O[C@H]2C[C@@](C)(OC)[C@@](O)(CN(C)CCN(CC)CC)[C@H](C)O2)[C@H](C)[C@@H](O[C@@H]2O[C@H](C)C[C@H](N(C)C)[C@H]2O)[C@@](C)(OC)C[C@@H](C)C(=O)[C@H](C)[C@H]2N(CCN3CCNS3(=O)=O)C(=O)O[C@]12C [Example 440],–,–,4 to 8 µg/mL,0.12 to 0.25 µg/mL
CC[C@H]1OC(=O)[C@H](C)[C@@H](O[C@H]2C[C@@](C)(OC)[C@@](O)(CN(C)CCN(C)C)[C@H](C)O2)[C@H](C)[C@@H](O[C@@H]2O[C@H](C)C[C@H](N(C)C)[C@H]2O)[C@@](C)(OC)C[C@@H](C)C(=O)[C@H](C)[C@H]2N(C)C(=O)O[C@]12C [Example 183],–,–,≥ 16 µg/mL,0.5 to 2 µg/mL

# From patent US9139609B2, “C-4″ position substituted macrolide derivative” (priority 2011, dated 2015)
